Experimental data as given in patent publication US11214594B2, “Antimicrobial peptide having synergistic antibacterial effect with antibiotics on multidrug resistant bacteria, and use thereof” (priority 2016, dated 2022).
Converted amounts (≈) assume the structure as drawn. Like-named read-outs stand apart in the source and are kept apart here. Where a SMILES comes first, the peptide text is derived from it.

Assays:
[1] = test system: MDRAB 12035; assay: MIC of antibiotic during combined treatment with antimicrobial peptide; format: cell-based, Acinetobacter baumannii
Method in brief: (§1)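 Broth microdilution in MH medium; strains were diluted to 2×10^6 CFU per ml before plating. Peptide was serially diluted stepwise at 2:1 starting from its MIC, and MH-diluted antibiotic was then added to determine MIC. The reversed arrangement was also tested.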

[2] = test system: MDRAB 12036; format: cell-based, Acinetobacter baumannii
Method in brief: (§2)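 Broth microdilution in MH medium: strains diluted to 2×10^6 CFU were mixed with equal volumes of twofold serial peptide dilutions in MH medium. MIC was taken as the lowest peptide concentration preventing bacterial growth.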

[3] = test system: MDREC 1238; format: cell-based, Escherichia coli
Method in brief: as §2

[4] = test system: MDRPA 2003; format: cell-based, Pseudomonas aeruginosa
Method in brief: as §2

[5] = test system: E. coli; format: cell-based, Escherichia coli; conditions: E. coli
Method in brief: as §1

[6] = test system: MDREC 1229; format: cell-based, Escherichia coli
Method in brief: as §1

[7] = test system: A. baumannii; assay: MIC of antibiotic during combined treatment with antimicrobial peptide; format: cell-based, Acinetobacter baumannii; conditions: for Antibiotic MIC, Erythromycin / Antibiotic MIC, Linezolid / Antibiotic MIC, Vancomycin: A. baumannii
Method in brief: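 First, antibiotic solution is diluted with MH medium; next, the dilution is dispensed into wells containing peptide; finally, the orientation is swapped and MIC of each mixture determined.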

[8] = test system: MDRST 8009; format: cell-based, Salmonella typhimurium; conditions: agent alone
Method in brief: as §2

[9] = test system: MDREC 1229; assay: MIC of antibiotic during combined treatment with antimicrobial peptide; format: cell-based, Escherichia coli
Method in brief: as §1

[10] = test system: P. aeruginosa; assay: microbe, parasite or virus in culture; format: cell-based, Pseudomonas aeruginosa
Method in brief: as §2

[11] = test system: S. epidermidis; assay: microbe, parasite or virus in culture; format: cell-based, Staphylococcus epidermidis
Method in brief: as §2

[12] = test system: MDRAB 12035; assay: MIC of antimicrobial peptide during combined treatment with antibiotic; format: cell-based, Acinetobacter baumannii
Method in brief: as §1

[13] = test system: A. baumannii; assay: as above; format: cell-based, Acinetobacter baumannii
Method in brief: as §1

[14] = peptide treatment concentration 1 μg/ml
[15] = peptide treatment concentration 2 μg/ml
[16] = peptide treatment concentration 4 μg/ml
[17] = peptide treatment concentration 6 μg/ml
[18] = peptide treatment concentration 8 μg/ml
[19] = peptide treatment concentration 16 μg/ml
[20] = peptide treatment concentration 32 μg/ml
[21] = peptide treatment concentration 64 μg/ml
[22] = with Erythromycin […] (Conc./MIC 1)
[23] = combined with peptide at 1 μg/ml
[24] = combined with peptide at 2 μg/ml
[25] = combined with peptide at 4 μg/ml
[26] = combined with peptide at 6 μg/ml
[27] = combined with peptide at 8 μg/ml
[28] = combined with peptide at 16 μg/ml
[29] = combined with peptide at 32 μg/ml
[30] = combined with peptide at 64 μg/ml
[31] = erythromycin 4 μg/ml (Conc./MIC 1/8)
[32] = erythromycin 8 μg/ml (Conc./MIC 1/4)
[33] = erythromycin 16 μg/ml (Conc./MIC 1/2)
[34] = erythromycin 32 μg/ml (Conc./MIC 1)
[35] = vancomycin 512 μg/ml (Conc./MIC 1/2)
[36] = vancomycin 1024 μg/ml (Conc./MIC 1)

CC[C@H](C)[C@H](NC(=O)[C@H](CCCCN)NC(=O)[C@H](Cc1c[nH]c2ccccc12)NC(=O)[C@@H](N)CCCNC(=N)N)C(=O)N[C@@H](Cc1ccccc1)C(=O)N[C@@H](CCCCN)C(=O)N[C@@H](CCCCN)C(=O)N[C@H](C(=O)N1CCC[C@H]1C(=O)N[C@@H](CCCCN)C(=O)N[C@@H](CC(C)C)C(=O)N[C@@H](CC(C)C)C(=O)N[C@@H](Cc1c[nH]cn1)C(=O)N[C@@H](CO)C(=O)N[C@@H](Cc1ccccc1)C(=O)N[C@@H](CCCCN)C(=O)N[C@@H](CCCCN)C(=O)N[C@@H](Cc1ccccc1)C(N)=O)[C@@H](C)CC [PapMA-7, RWK IFK KIP KLL HSF KKF-NH2] (H-RWKIFKKIPKLLHSFKKF-NH2; N-terminus assumed)
Erythromycin MIC during combined treatment with peptide [1, 14]: 8 µg/mL | Linezolid MIC during combined treatment with peptide [1, 14]: 64 µg/mL | Vancomycin MIC during combined treatment with peptide [1, 14]: 128 µg/mL | Erythromycin MIC during combined treatment with peptide [1, 15]: 4 µg/mL | Linezolid MIC during combined treatment with peptide [1, 15]: 32 µg/mL | Vancomycin MIC during combined treatment with peptide [1, 15]: 32 µg/mL | Erythromycin MIC during combined treatment with peptide [1, 16]: 2 µg/mL | Linezolid MIC during combined treatment with peptide [1, 16]: 8 µg/mL | Vancomycin MIC during combined treatment with peptide [1, 16]: 8 µg/mL | Erythromycin MIC during combined treatment with peptide [1, 17]: 0.5 µg/mL | Linezolid MIC during combined treatment with peptide [1, 17]: 4 µg/mL | Vancomycin MIC during combined treatment with peptide [1, 17]: 4 µg/mL | Erythromycin MIC during combined treatment with peptide [1, 18]: 0.125 µg/mL | Linezolid MIC during combined treatment with peptide [1, 18]: 2 µg/mL | Vancomycin MIC during combined treatment with peptide [1, 18]: 2 µg/mL | Erythromycin MIC during combined treatment with peptide [1, 19]: 0.0625 µg/mL | Linezolid MIC during combined treatment with peptide [1, 19]: 1 µg/mL | Vancomycin MIC during combined treatment with peptide [1, 19]: 1 µg/mL | Erythromycin MIC during combined treatment with peptide [1, 20]: 0 µg/mL | Linezolid MIC during combined treatment with peptide [1, 20]: 0 µg/mL | Vancomycin MIC during combined treatment with peptide [1, 20]: 0 µg/mL | Erythromycin MIC during combined treatment with peptide [1, 21]: 0 µg/mL | Linezolid MIC during combined treatment with peptide [1, 21]: 0 µg/mL | Vancomycin MIC during combined treatment with peptide [1, 21]: 0 µg/mL | Minimal inhibitory concentration MIC [2]: 32 µg/mL (≈ 13.7 µM) | Minimal inhibitory concentration MIC [3]: 64 µg/mL (≈ 27.3 µM) | Minimal inhibitory concentration MIC [4]: 16 µg/mL (≈ 6.83 µM) | Peptide MIC [5, 22]: 0 µg/mL | Peptide MIC ([5]; with Linezolid […] (Conc./MIC 1)): 0 µg/mL | Peptide MIC ([5]; with Vancomycin 1024 μg/ml (Conc./MIC 1)): 0 µg/mL | Peptide MIC [6, 22]: 0 µg/mL | Peptide MIC ([6]; with Linezolid 512 μg/ml (Conc./MIC 1)): 0 µg/mL | Synergistic effect of antibacterial activity with existing antibiotics compared with PapMA-1 ([7]; A. baumannii and MDRAB 12035): higher level than the PapMA-1 peptide | Antibiotic MIC, Erythromycin [7, 23]: 16 µg/mL | Antibiotic MIC, Linezolid [7, 23]: 128 µg/mL | Antibiotic MIC, Vancomycin [7, 23]: >128 µg/mL | Antibiotic MIC, Erythromycin [7, 24]: 8 µg/mL | Antibiotic MIC, Linezolid [7, 24]: 32 µg/mL | Antibiotic MIC, Vancomycin [7, 24]: 64 µg/mL | Antibiotic MIC, Erythromycin [7, 25]: 2 µg/mL | Antibiotic MIC, Linezolid [7, 25]: 8 µg/mL | Antibiotic MIC, Vancomycin [7, 25]: 16 µg/mL | Antibiotic MIC, Erythromycin [7, 26]: 1 µg/mL | Antibiotic MIC, Linezolid [7, 26]: 2 µg/mL | Antibiotic MIC, Vancomycin [7, 26]: 4 µg/mL | Antibiotic MIC, Erythromycin [7, 27]: 0.125 µg/mL | Antibiotic MIC, Linezolid [7, 27]: 1 µg/mL | Antibiotic MIC, Vancomycin [7, 27]: 2 µg/mL | Antibiotic MIC, Erythromycin [7, 28]: 0 µg/mL | Antibiotic MIC, Linezolid [7, 28]: 0 µg/mL | Antibiotic MIC, Vancomycin [7, 28]: 0 µg/mL | Antibiotic MIC, Erythromycin [7, 29]: 0 µg/mL | Antibiotic MIC, Linezolid [7, 29]: 0 µg/mL | Antibiotic MIC, Vancomycin [7, 29]: 0 µg/mL | Antibiotic MIC, Erythromycin [7, 30]: 0 µg/mL | Antibiotic MIC, Linezolid [7, 30]: 0 µg/mL | Antibiotic MIC, Vancomycin [7, 30]: 0 µg/mL | Minimal inhibitory concentration MIC [8]: 32 µg/mL (≈ 13.7 µM) | Antibiotic MIC, Erythromycin [9, 14]: 64 µg/mL | Antibiotic MIC, Linezolid [9, 14]: 128 µg/mL | Antibiotic MIC, Vancomycin [9, 14]: >128 µg/mL | Antibiotic MIC, Erythromycin [9, 15]: 16 µg/mL | Antibiotic MIC, Linezolid [9, 15]: 32 µg/mL | Antibiotic MIC, Vancomycin [9, 15]: >128 µg/mL | Antibiotic MIC, Erythromycin [9, 16]: 4 µg/mL | Antibiotic MIC, Linezolid [9, 16]: 16 µg/mL | Antibiotic MIC, Vancomycin [9, 16]: 128 µg/mL | Antibiotic MIC, Erythromycin [9, 17]: 2 µg/mL | Antibiotic MIC, Linezolid [9, 17]: 8 µg/mL | Antibiotic MIC, Vancomycin [9, 17]: 16 µg/mL | Antibiotic MIC, Erythromycin [9, 18]: 1 µg/mL | Antibiotic MIC, Linezolid [9, 18]: 4 µg/mL | Antibiotic MIC, Vancomycin [9, 18]: 8 µg/mL | Antibiotic MIC, Erythromycin [9, 19]: 0.125 µg/mL | Antibiotic MIC, Linezolid [9, 19]: 2 µg/mL | Antibiotic MIC, Vancomycin [9, 19]: 2 µg/mL | Antibiotic MIC, Erythromycin [9, 20]: 0.0625 µg/mL | Antibiotic MIC, Linezolid [9, 20]: 1 µg/mL | Antibiotic MIC, Vancomycin [9, 20]: 1 µg/mL | Antibiotic MIC, Erythromycin [9, 21]: 0 µg/mL | Antibiotic MIC, Linezolid [9, 21]: 0 µg/mL | Antibiotic MIC, Vancomycin [9, 21]: 0 µg/mL | Minimal inhibitory concentration MIC [10]: 16 µg/mL (≈ 6.83 µM) | Antibacterial activity (in words) ([10]; P. aeruginosa and S. typhimurium): significantly increased | Minimal inhibitory concentration MIC [11]: >128 µg/mL | Peptide MIC during treatment with erythromycin [12, 31]: 2 µg/mL | Peptide MIC during treatment with erythromycin [12, 32]: 1 µg/mL | Peptide MIC during treatment with erythromycin [12, 33]: 1 µg/mL | Peptide MIC during treatment with erythromycin [12, 34]: 0 µg/mL | Peptide MIC during treatment with linezolid ([12]; linezolid 64 μg/ml (Conc./MIC 1/8)): 1 µg/mL | Peptide MIC during treatment with linezolid ([12]; linezolid 512 μg/ml (Conc./MIC 1)): 0 µg/mL | Peptide MIC during treatment with linezolid ([12]; linezolid […] (Conc./MIC 1/2)): 1 µg/mL | Peptide MIC during treatment with linezolid ([12]; linezolid […] (Conc./MIC 1/4)): 1 µg/mL | Peptide MIC during treatment with vancomycin [12, 35]: 0.5 µg/mL | Peptide MIC during treatment with vancomycin [12, 36]: 0.25 µg/mL | Peptide MIC during treatment with vancomycin ([12]; vancomycin […] (Conc./MIC 1/4)): 1 µg/mL | Peptide MIC during treatment with vancomycin ([12]; vancomycin […] (Conc./MIC 1/8)): 1 µg/mL | Peptide MIC during treatment with antibiotic [13, 31]: 2 µg/mL | Peptide MIC during treatment with antibiotic [13, 32]: 2 µg/mL | Peptide MIC during treatment with antibiotic [13, 33]: 1 µg/mL | Peptide MIC during treatment with antibiotic [13, 34]: 0 µg/mL | Peptide MIC during treatment with antibiotic ([13]; linezolid 32 μg/ml (Conc./MIC 1/8)): 2 µg/mL | Peptide MIC during treatment with antibiotic ([13]; linezolid 64 μg/ml (Conc./MIC 1/4)): 2 µg/mL | Peptide MIC during treatment with antibiotic ([13]; linezolid […] (Conc./MIC 1)): 0 µg/mL | Peptide MIC during treatment with antibiotic ([13]; linezolid […] (Conc./MIC 1/2)): 1 µg/mL | Peptide MIC during treatment with antibiotic [13, 35]: 0.25 µg/mL | Peptide MIC during treatment with antibiotic [13, 36]: 0 µg/mL | Peptide MIC during treatment with antibiotic ([13]; vancomycin […] (Conc./MIC 1/4)): 0.25 µg/mL | Peptide MIC during treatment with antibiotic ([13]; vancomycin […] (Conc./MIC 1/8)): 2 µg/mL
